# Measurements: US20090118350A1, “Biomarkers for Identifying Efficacy of Tegaserod in Patients with Chronic Constipation” (priority 2005, published 2009)
# System: patients with chronic constipation
# Assay: Clinical trial, primary efficacy: mean increase of 1 or more CSBM/week over baseline after 4 weeks of treatment (responders), by subgroup and genotype
# Format: in vivo, human
# Conditions: for % Responders: 6-mg bid
# Experimental: Introduction. A clinical trial was performed to evaluate the efficacy of tegaserod (Zelmac®/Zelnorm™) at 6 mg bid (12 mg/day) or 2 mg bid (4 mg/day) vs. placebo by measuring the number of complete spontaneous bowel movements (CSBM) during the first 4 weeks of treatment. Secondary objectives included evaluating the number of CSBM during the entire 12-week treatment period, bowel habits, laxative use, and safety and tolerability issues. The clinical trial design consisted of a 2-week baseline period without medication, a 12-week, randomized, double-blind, placebo-controlled treatment period, and a 4-week withdrawal period without study medication. As part of the clinical trial, DNA was collected from patients at screening for pharmacogenetic analysis to evaluate genetic polymorphisms relating to drug targets and disease aetiology.
# Samples. A total 1348 patients were randomized as the intent-to-treat (ITT) population. Blood samples from these patients were collected at the time of patient screening and DNA was extracted using the PUREGENE™ DNA Isolation Kit (D-50K). Of these, samples from 738 randomized patients had good quality genotype data for at least half of the 55 SNPs evaluated.
# Clinical assessments. […] The primary efficacy endpoint evaluated was the increase of 1 or more CSBM/week over baseline after 4 weeks of treatment. A secondary endpoint evaluated in this genotyping study was RESP12, the increase of 1 of more CSBM/week over baseline after 12 weeks of treatment. Patients were classified as responders if they met these criteria and had completed at least 7 days of treatment. Additional secondary efficacy assessments were evaluated based on the weekly diary assessments, such as bothersome constipation, bothersome abdominal pain, and satisfaction with bowel habits at the end of the 12-week treatment period (using the baseline value as a co-variant for analysis).
# Genotyping. A total of 61 polymorphisms in 23 candidate genes were selected for analysis. Genotyping was performed using the TaqMan® technology for most of the assays, while a few were performed in-house using the Third Wave Technologies Invader Assay technique (see TABLE 2 for assay IDs for all evaluated SNPs). Of the 61 SNPs genotyped, 55 yielded good quality, polymorphic genotypes for use in further evaluation.
# Statistical analysis. Statistical analysis was performed using SAS version 8.2 (The SAS Institute, Cary, N.C., USA). Analysis methods included Fisher's Exact tests, analysis of Covariance (ANCOVA), logistic regression, and Mantel-Haenzel tests to determine odds ratios and 95% confidence intervals, with significance established at p<0.05. Calculation of linkage disequilibrium was performed using the GOLD (graphical overview of linkage disequilibrium) method described by Abecasis & Cookson, Bioinformatics 16: 182-3 (2000).
# Demographic comparisons. TABLE 3 presents the demographic breakdown of the patients in the overall clinical study and those included in this genotype analysis. Distributions were similar between the genotype population and the total patient population. […] Based on these findings, it was decided to limit analysis to the Caucasian population, which accounted for nearly 90% of all patients, to prevent a confounding effect of race on subsequent genotype analyses. Furthermore, the analysis was also limited to those intent-to-treat patients that were treated with tegaserod or placebo for at least 7 days (total of 635 patients).
# Comparison of overall response rates. TABLE 4 presents the overall response for the primary efficacy endpoint (a mean increase in 1 or more CSBM/week over baseline after 4 weeks) for tegaserod 6-mg bid compared with placebo for both the overall patient population and the subgroup of patients for which we had genotype data (all races and Caucasians only). […]
structure (smiles),measurement,setting,value
"[H]/N=C(/NCCCCC)N/N=C/c1c[nH]c2ccc(OC)cc12 [tegaserod, Tegaserod]",% Responders,"4 weeks, All Caucasians (ITT, >=7 days), Age <65, M + F",46%
same,% Responders,"4 weeks, All Caucasians (ITT, >=7 days), Age >=65, M + F",33%
same,% Responders,"4 weeks, All Caucasians (ITT, >=7 days), Age All, Female",46%
same,% Responders,"4 weeks, All Caucasians (ITT, >=7 days), Age All, M + F",45%
same,% Responders,"4 weeks, All Caucasians (ITT, >=7 days), Age All, Male",37%
same,% Responders,"4 weeks, All genotyped (ITT, >=7 days), Age <65, M + F",45%
same,% Responders,"4 weeks, All genotyped (ITT, >=7 days), Age >=65, M + F",50%
same,% Responders,"4 weeks, All genotyped (ITT, >=7 days), Age All, Female",45%
same,% Responders,"4 weeks, All genotyped (ITT, >=7 days), Age All, M + F",46%
same,% Responders,"4 weeks, All genotyped (ITT, >=7 days), Age All, Male",48%
same,% Responders,"4 weeks, All patients (ITT, >=7 days), Age <65, M + F",45%
same,% Responders,"4 weeks, All patients (ITT, >=7 days), Age >=65, M + F",35%
same,% Responders,"4 weeks, All patients (ITT, >=7 days), Age All, Female",45%
same,% Responders,"4 weeks, All patients (ITT, >=7 days), Age All, M + F",44%
same,% Responders,"4 weeks, All patients (ITT, >=7 days), Age All, Male",36%
same,% Responders,"4 weeks, Caucasians genotyped (ITT, >=7 days), Age <65, M + F, all genotypes",46%
same,% Responders,"4 weeks, Caucasians genotyped (ITT, >=7 days), Age >=65, M + F, all genotypes",47%
same,% Responders,"4 weeks, Caucasians genotyped (ITT, >=7 days), Age All, Female, all genotypes",45%
same,% Responders,"4 weeks, Caucasians genotyped (ITT, >=7 days), Age All, M + F, all genotypes",46%
same,% Responders,"4 weeks, Caucasians genotyped (ITT, >=7 days), Age All, Male, all genotypes",52%
same,% Responders,"4 weeks, ITT Caucasians >=7 days, 0 of 14 SNPs",32%
same,% Responders,"4 weeks, ITT Caucasians >=7 days, >=1 of 14 SNPs",53%
same,% Responders,"4 weeks, ITT Caucasians >=7 days, AQP3 (PG ID 1838) genotype CC",43%
same,% Responders,"4 weeks, ITT Caucasians >=7 days, AQP3 (PG ID 1838) genotype CG",47%
same,% Responders,"4 weeks, ITT Caucasians >=7 days, AQP3 (PG ID 1838) genotype GG",71%
same,% Responders,"4 weeks, ITT Caucasians >=7 days, Female (All ages), 0 of the 12 SNPs",33%
same,% Responders,"4 weeks, ITT Caucasians >=7 days, Female (All ages), 1-12 of the 12 SNPs",59%
same,% Responders,"4 weeks, ITT Caucasians >=7 days, HTR3B (PG ID 3755) genotype AA",46%
same,% Responders,"4 weeks, ITT Caucasians >=7 days, HTR3B (PG ID 3755) genotype AC",44%
same,% Responders,"4 weeks, ITT Caucasians >=7 days, HTR3B (PG ID 3755) genotype CC",67%
same,% Responders,"4 weeks, ITT Caucasians >=7 days, HTR4 (PG ID 1746) genotype CC",42%
same,% Responders,"4 weeks, ITT Caucasians >=7 days, HTR4 (PG ID 1746) genotype CT",44%
same,% Responders,"4 weeks, ITT Caucasians >=7 days, HTR4 (PG ID 1746) genotype TT",75%
same,% Responders,"4 weeks, ITT Caucasians >=7 days, HTR4 (PG ID 3743) genotype AA",43%
same,% Responders,"4 weeks, ITT Caucasians >=7 days, HTR4 (PG ID 3743) genotype AC",46%
same,% Responders,"4 weeks, ITT Caucasians >=7 days, HTR4 (PG ID 3743) genotype CC",78%
same,% Responders,"4 weeks, ITT Caucasians >=7 days, HTR4 (PG ID 3747) genotype AA",43%
same,% Responders,"4 weeks, ITT Caucasians >=7 days, HTR4 (PG ID 3747) genotype AT",45%
same,% Responders,"4 weeks, ITT Caucasians >=7 days, HTR4 (PG ID 3747) genotype TT",70%
same,% Responders,"4 weeks, ITT Caucasians >=7 days, HTR4 (PG ID 3753) genotype CC",43%
same,% Responders,"4 weeks, ITT Caucasians >=7 days, HTR4 (PG ID 3753) genotype CT",44%
same,% Responders,"4 weeks, ITT Caucasians >=7 days, HTR4 (PG ID 3753) genotype TT",75%
same,% Responders,"4 weeks, ITT Caucasians >=7 days, HTR4 (PG ID 3754) genotype AA",46%
same,% Responders,"4 weeks, ITT Caucasians >=7 days, HTR4 (PG ID 3754) genotype AT",42%
same,% Responders,"4 weeks, ITT Caucasians >=7 days, HTR4 (PG ID 3754) genotype TT",67%
same,% Responders,"4 weeks, ITT Caucasians >=7 days, HTR4 (PG ID 3756) genotype AA",39%
same,% Responders,"4 weeks, ITT Caucasians >=7 days, HTR4 (PG ID 3756) genotype AC",46%
same,% Responders,"4 weeks, ITT Caucasians >=7 days, HTR4 (PG ID 3756) genotype CC",71%
same,% Responders,"4 weeks, ITT Caucasians >=7 days, M + F (<65), 0 of the 12 SNPs",33%
same,% Responders,"4 weeks, ITT Caucasians >=7 days, M + F (<65), 1-12 of the 12 SNPs",61%
same,% Responders,"4 weeks, ITT Caucasians >=7 days, M + F (>=65), 0 of the 12 SNPs",14%
same,% Responders,"4 weeks, ITT Caucasians >=7 days, M + F (>=65), 1-12 of the 12 SNPs",70%
same,% Responders,"4 weeks, ITT Caucasians >=7 days, M + F (All ages), 0 of the 12 high responder SNPs",31%
same,% Responders,"4 weeks, ITT Caucasians >=7 days, M + F (All ages), 1-12 of the 12 high responder SNPs",62%
same,% Responders,"4 weeks, ITT Caucasians >=7 days, MLN (PG ID 1783) genotype CC",47%
same,% Responders,"4 weeks, ITT Caucasians >=7 days, MLN (PG ID 1783) genotype CT",40%
same,% Responders,"4 weeks, ITT Caucasians >=7 days, MLN (PG ID 1783) genotype TT",63%
same,% Responders,"4 weeks, ITT Caucasians >=7 days, Male (All ages), 0 of the 12 SNPs",20%
same,% Responders,"4 weeks, ITT Caucasians >=7 days, Male (All ages), 1-12 of the 12 SNPs",82%
same,% Responders,"4 weeks, ITT Caucasians >=7 days, SCNN1A (PG ID 3806) genotype GG",62%
same,% Responders,"4 weeks, ITT Caucasians >=7 days, SCNN1A (PG ID 3806) genotype GT",47%
same,% Responders,"4 weeks, ITT Caucasians >=7 days, SCNN1A (PG ID 3806) genotype TT",36%
same,% Responders,"4 weeks, ITT Caucasians >=7 days, SLC12A2 (PG ID 1842) genotype AA",69%
same,% Responders,"4 weeks, ITT Caucasians >=7 days, SLC12A2 (PG ID 1842) genotype AG",27%
same,% Responders,"4 weeks, ITT Caucasians >=7 days, SLC12A2 (PG ID 1842) genotype GG",51%
same,% Responders,"4 weeks, ITT Caucasians >=7 days, SLC12A2 (PG ID 3801) genotype CC",75%
same,% Responders,"4 weeks, ITT Caucasians >=7 days, SLC12A2 (PG ID 3801) genotype CT",27%
same,% Responders,"4 weeks, ITT Caucasians >=7 days, SLC12A2 (PG ID 3801) genotype TT",52%
same,% Responders,"4 weeks, ITT Caucasians >=7 days, TPH1 (PG ID 1756) genotype GG",51%
same,% Responders,"4 weeks, ITT Caucasians >=7 days, TPH1 (PG ID 1756) genotype GT",48%
same,% Responders,"4 weeks, ITT Caucasians >=7 days, TPH1 (PG ID 1756) genotype TT",36%
same,% Responders,"4 weeks, ITT Caucasians >=7 days, TPH1 (PG ID 3784) genotype CC",32%
same,% Responders,"4 weeks, ITT Caucasians >=7 days, TPH1 (PG ID 3784) genotype CT",49%
same,% Responders,"4 weeks, ITT Caucasians >=7 days, TPH1 (PG ID 3784) genotype TT",50%
same,rate of response,"lower dose 2-mg bid, 4 weeks, compared with placebo and with 6-mg bid",the response was less than that seen for the 6-mg bid dose
same,Odds Ratio,the two other genotyped SCNN1A SNPs (near 5' end and near 3' end),> 3.5
